Measured values from ChEMBL document CHEMBL1909046, “DrugMatrix in vitro pharmacology data”.

Legend:
[1] = target: Aldo-keto reductase family 1 member B1 (Rattus norvegicus, UniProt P07943); assay type: tissue-based, Lens of camera-type eye;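 note: inhibition of aldose reductase enzyme activity, measured with DL-glyceraldehyde as the substrate; in other assays of this panel Not Active means under 50% inhibition at 10 µM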
[2] = target: T1, Type-2 angiotensin II receptor (Homo sapiens, UniProt P50052); assay type: cell-based; conditions: cho-k1; note: in other assays of this panel Not Active means under 50% inhibition at 10 µM
T1 sequence (P50052 whole entry): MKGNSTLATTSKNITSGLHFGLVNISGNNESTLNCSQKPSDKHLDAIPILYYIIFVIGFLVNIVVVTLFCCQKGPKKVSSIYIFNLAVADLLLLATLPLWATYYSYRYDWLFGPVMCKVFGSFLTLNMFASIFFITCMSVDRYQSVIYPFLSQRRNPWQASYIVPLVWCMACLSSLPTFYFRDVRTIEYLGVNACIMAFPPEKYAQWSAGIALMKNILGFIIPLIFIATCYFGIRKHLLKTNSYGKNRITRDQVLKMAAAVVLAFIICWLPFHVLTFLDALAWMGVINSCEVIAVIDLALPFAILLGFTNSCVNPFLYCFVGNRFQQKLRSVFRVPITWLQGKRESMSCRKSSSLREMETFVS

[3] = DRUGMATRIX: Calcium Channel Type L, Benzothiazepine radioligand binding (ligand: [3H] Diltiazem); assay type: cell membranes, Rattus norvegicus, Wistar, Brain, Membrane; conditions: Not Active = under 50% inhibition at 10 µM
[4] = target: T2, Substance-K receptor (Homo sapiens, UniProt P21452); assay type: cell membranes, CHO, Membrane; conditions: cho; note: in other assays of this panel Not Active means under 50% inhibition at 10 µM
T2 sequence (P21452 whole entry): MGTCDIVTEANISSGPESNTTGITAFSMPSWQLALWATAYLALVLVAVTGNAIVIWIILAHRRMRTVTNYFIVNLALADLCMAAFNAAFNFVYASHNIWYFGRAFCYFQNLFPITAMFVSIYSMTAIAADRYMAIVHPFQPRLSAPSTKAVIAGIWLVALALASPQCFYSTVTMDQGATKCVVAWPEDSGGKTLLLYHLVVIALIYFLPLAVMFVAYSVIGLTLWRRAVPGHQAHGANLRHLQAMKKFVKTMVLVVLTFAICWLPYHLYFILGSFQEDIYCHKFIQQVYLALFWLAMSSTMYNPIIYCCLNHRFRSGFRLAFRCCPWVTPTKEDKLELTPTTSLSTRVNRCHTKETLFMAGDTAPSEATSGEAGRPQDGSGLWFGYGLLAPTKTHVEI

[5] = target: T3, C-C chemokine receptor type 4 (Homo sapiens, UniProt P51679); assay type: cell membranes, Membrane; conditions: chem-1; note: in other assays of this panel Not Active means under 50% inhibition at 10 µM
T3 sequence (P51679 whole entry): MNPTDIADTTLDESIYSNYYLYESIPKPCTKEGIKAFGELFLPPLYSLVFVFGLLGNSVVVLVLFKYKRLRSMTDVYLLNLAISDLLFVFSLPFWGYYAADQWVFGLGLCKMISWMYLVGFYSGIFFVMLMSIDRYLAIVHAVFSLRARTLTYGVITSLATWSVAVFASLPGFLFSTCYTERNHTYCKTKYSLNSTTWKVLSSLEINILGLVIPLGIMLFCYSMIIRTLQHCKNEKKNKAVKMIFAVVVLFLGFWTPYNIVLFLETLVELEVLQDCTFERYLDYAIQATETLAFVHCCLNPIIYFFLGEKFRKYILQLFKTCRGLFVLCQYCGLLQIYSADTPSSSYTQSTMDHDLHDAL

[6] = DRUGMATRIX: Glutamate, NMDA, Agonism radioligand binding (ligand: [3H] CGP-39653); assay type: cell membranes, Rattus norvegicus, Wistar, Cerebral cortex, Membrane; conditions: Not Active = under 50% inhibition at 10 µM
[7] = DRUGMATRIX: Glutamate, NMDA, Phencyclidine radioligand binding (ligand: [3H] TCP); assay type: cell membranes, Rattus norvegicus, Wistar, Cerebral cortex, Membrane; conditions: Not Active = under 50% inhibition at 10 µM
[8] = target: T4, Neuropeptide Y receptor type 1 (Homo sapiens, UniProt P25929); assay type: cell membranes, Membrane; conditions: sk-n-mc; note: in other assays of this panel Not Active means under 50% inhibition at 10 µM
T4 sequence (P25929 whole entry): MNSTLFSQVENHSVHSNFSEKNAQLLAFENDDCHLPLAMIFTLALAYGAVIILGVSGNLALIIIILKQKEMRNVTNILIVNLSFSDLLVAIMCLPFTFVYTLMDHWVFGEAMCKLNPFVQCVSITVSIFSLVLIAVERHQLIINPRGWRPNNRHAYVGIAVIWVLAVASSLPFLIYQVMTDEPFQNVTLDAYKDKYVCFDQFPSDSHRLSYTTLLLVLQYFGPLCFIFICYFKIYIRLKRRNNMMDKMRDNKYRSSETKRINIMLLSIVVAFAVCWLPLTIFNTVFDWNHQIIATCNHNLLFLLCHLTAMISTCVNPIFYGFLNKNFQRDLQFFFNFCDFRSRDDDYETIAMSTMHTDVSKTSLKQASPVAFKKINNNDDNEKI

[9] = DRUGMATRIX: Platelet-Derived Growth Factor (PDGF) radioligand binding (ligand: [125I] PDGF); assay type: cell-based; conditions: nih3t3; Not Active = under 50% inhibition at 10 µM
[10] = target: Mitogen-activated protein kinase 3 (Homo sapiens, UniProt P27361); assay: DRUGMATRIX: Protein Serine/Threonine Kinase, ERK1 enzyme inhibition (substrate: Myelin Basic Protein); parameters: species or system Escherichia coli; conditions: Not Active = under 50% inhibition at 10 µM
Mitogen-activated protein kinase 3, sequence (P27361 whole entry): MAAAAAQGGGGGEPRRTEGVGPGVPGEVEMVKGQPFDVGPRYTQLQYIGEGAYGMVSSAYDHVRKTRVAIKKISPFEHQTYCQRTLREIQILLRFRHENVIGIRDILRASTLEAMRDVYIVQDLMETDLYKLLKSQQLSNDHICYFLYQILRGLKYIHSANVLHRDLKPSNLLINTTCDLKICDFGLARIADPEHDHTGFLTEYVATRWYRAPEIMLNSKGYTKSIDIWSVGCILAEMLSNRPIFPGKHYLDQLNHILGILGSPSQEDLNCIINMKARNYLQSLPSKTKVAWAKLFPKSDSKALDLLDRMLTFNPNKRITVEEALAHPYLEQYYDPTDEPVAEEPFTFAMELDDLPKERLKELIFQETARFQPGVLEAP

[11] = target: Mitogen-activated protein kinase 1 (Homo sapiens, UniProt P28482); assay: DRUGMATRIX: Protein Serine/Threonine Kinase, ERK2 enzyme inhibition (substrate: Myelin Basic Protein); parameters: species or system Escherichia coli; conditions: Not Active = under 50% inhibition at 10 µM
Mitogen-activated protein kinase 1, sequence (P28482 whole entry): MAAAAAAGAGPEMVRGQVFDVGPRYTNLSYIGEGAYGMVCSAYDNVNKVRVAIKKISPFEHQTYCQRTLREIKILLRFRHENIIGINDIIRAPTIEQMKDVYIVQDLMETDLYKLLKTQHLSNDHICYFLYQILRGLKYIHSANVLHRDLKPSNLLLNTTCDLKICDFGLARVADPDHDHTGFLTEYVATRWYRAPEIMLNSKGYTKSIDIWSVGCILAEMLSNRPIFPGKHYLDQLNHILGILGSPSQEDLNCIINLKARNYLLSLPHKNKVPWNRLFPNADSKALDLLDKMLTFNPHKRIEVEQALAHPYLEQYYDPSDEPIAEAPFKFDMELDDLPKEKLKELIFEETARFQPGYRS

[12] = target: Tyrosine-protein kinase Fyn (Homo sapiens, UniProt P06241); assay: biochemical; assay type: cell-based, Insect cells; conditions: insect cells
Tyrosine-protein kinase Fyn, sequence (P06241 whole entry): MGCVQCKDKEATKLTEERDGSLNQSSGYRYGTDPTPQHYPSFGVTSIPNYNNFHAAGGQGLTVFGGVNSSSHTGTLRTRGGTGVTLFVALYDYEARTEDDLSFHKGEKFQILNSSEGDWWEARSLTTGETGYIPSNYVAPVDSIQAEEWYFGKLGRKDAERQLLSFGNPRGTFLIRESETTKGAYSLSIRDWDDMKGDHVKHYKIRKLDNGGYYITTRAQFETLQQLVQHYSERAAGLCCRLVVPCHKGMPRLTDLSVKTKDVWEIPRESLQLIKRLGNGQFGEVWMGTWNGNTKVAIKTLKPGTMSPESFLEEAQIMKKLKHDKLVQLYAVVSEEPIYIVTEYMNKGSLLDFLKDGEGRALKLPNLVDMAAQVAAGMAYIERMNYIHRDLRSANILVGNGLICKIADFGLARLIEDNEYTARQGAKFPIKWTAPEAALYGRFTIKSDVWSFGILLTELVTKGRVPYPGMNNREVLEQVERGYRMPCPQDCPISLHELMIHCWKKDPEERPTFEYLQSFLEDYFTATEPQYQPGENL

[13] = target: Acetylcholinesterase (Homo sapiens, UniProt P22303); assay: DRUGMATRIX: Acetylcholinesterase enzyme inhibition (substrate: acetylthiocholine); assay type: cell-based, HEK293; conditions: hek293; Not Active = under 50% inhibition at 10 µM
Acetylcholinesterase, sequence (P22303 whole entry): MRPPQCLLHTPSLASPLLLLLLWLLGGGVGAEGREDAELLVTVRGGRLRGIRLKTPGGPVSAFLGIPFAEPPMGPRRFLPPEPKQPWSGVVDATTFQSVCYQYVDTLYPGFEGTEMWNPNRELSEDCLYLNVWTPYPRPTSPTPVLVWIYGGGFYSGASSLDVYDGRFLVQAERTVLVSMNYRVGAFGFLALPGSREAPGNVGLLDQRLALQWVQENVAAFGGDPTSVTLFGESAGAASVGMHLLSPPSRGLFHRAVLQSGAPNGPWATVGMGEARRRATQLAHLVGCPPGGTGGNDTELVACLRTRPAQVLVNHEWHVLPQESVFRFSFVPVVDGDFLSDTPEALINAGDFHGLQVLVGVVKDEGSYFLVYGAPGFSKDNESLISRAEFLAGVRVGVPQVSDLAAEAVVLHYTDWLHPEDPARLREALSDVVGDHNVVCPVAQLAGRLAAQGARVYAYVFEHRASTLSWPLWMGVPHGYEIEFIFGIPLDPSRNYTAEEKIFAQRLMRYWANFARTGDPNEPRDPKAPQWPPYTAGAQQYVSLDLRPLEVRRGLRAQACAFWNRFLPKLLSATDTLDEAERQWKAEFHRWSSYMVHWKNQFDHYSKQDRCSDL

[14] = target: Cytochrome P450 3A4 (Homo sapiens, UniProt P08684); conditions: bti-tn-5b1-4; note: in other assays of this panel Not Active means under 50% inhibition at 10 µM
Cytochrome P450 3A4, sequence (P08684 whole entry): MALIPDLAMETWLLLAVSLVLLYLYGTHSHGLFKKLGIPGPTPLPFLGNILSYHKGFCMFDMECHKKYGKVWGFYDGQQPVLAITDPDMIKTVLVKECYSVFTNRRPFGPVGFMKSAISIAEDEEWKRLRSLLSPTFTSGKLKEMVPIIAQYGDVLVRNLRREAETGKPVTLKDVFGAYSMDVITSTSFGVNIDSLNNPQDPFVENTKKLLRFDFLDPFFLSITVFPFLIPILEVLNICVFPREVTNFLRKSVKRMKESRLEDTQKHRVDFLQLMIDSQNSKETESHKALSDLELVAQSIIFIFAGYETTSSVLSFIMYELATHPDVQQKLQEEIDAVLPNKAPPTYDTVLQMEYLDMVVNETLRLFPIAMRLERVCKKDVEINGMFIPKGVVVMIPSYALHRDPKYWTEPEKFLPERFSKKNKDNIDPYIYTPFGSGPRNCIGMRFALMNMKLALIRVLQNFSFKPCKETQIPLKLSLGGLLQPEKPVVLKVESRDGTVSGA

[15] = target: Voltage-gated inwardly rectifying potassium channel KCNH2 (Homo sapiens, UniProt Q12809); conditions: hek293; note: in other assays of this panel Not Active means under 50% inhibition at 10 µM
Voltage-gated inwardly rectifying potassium channel KCNH2, sequence (Q12809 whole entry): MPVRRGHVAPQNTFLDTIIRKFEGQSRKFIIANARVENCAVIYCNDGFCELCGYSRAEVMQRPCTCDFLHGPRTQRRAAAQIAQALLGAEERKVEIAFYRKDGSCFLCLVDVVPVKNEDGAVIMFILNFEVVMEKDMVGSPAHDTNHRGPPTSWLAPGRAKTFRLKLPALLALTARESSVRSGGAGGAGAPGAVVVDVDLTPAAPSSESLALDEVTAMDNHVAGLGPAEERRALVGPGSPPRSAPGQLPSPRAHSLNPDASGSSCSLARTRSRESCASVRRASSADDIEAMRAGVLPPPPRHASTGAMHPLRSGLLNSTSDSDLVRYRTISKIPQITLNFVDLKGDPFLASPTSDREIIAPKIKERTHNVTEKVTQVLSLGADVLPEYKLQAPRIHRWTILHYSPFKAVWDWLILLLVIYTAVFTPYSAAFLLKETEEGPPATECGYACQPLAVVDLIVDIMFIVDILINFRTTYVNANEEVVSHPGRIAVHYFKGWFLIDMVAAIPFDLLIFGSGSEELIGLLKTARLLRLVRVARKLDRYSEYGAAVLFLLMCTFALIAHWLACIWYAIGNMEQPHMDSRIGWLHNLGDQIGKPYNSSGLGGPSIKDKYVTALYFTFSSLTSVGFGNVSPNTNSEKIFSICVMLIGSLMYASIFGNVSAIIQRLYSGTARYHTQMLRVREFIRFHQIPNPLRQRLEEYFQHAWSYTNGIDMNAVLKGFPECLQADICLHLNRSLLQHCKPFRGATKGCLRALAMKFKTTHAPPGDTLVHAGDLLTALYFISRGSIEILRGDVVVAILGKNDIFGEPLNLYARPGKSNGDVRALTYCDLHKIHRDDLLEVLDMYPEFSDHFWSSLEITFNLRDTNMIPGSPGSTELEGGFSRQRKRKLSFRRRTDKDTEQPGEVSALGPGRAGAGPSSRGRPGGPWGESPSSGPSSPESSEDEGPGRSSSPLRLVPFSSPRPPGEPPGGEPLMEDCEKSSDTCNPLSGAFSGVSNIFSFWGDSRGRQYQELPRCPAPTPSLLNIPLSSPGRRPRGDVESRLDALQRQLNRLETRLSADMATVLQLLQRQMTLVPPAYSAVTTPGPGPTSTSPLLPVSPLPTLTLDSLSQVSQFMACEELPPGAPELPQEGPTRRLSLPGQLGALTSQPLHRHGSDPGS

CC[C@@]1(O)C(=O)OCc2c1cc1n(c2=O)Cc2cc3ccccc3nc2-1 [CAMPTOTHECIN]
Not Active: IC50 [1] | IC50 [2] | IC50 [3] | Ki [3] | IC50 [4] | IC50 [5] | IC50 [6] | Ki [6] | IC50 [7] | Ki [7] | IC50 [8] | IC50 [9] | Ki [9] | IC50 [10] | IC50 [11] | IC50 [12] | IC50 [13] | IC50 [14] | Ki [14] | IC50 [15] | Ki [15]

COCc1c(C(C)C)nc(C(C)C)c(/C=C/[C@@H](O)C[C@@H](O)CC(=O)O)c1-c1ccc(F)cc1 [CERIVASTATIN]
Not Active: IC50 [1] | IC50 [2] | IC50 [3] | Ki [3] | IC50 [4] | IC50 [5] | IC50 [6] | Ki [6] | IC50 [7] | Ki [7] | IC50 [8] | IC50 [9] | Ki [9] | IC50 [10] | IC50 [11] | IC50 [12] | IC50 [13] | IC50 [14] | Ki [14] | IC50 [15] | Ki [15]

CC(=O)O[C@]1(C(C)=O)CC[C@H]2[C@@H]3C=C(Cl)C4=CC(=O)CC[C@]4(C)[C@H]3CC[C@@]21C [CHLORMADINONE ACETATE]
Not Active: IC50 [1] | IC50 [2] | IC50 [3] | Ki [3] | IC50 [4] | IC50 [5] | IC50 [6] | Ki [6] | IC50 [7] | Ki [7] | IC50 [8] | IC50 [9] | Ki [9] | IC50 [10] | IC50 [11] | IC50 [12] | IC50 [13] | IC50 [14] | Ki [14] | IC50 [15] | Ki [15]

O=C1CCc2cc(OCCCCc3nnnn3C3CCCCC3)ccc2N1 [CILOSTAZOL]
Not Active: IC50 [1] | IC50 [2] | IC50 [3] | Ki [3] | IC50 [4] | IC50 [5] | IC50 [6] | Ki [6] | IC50 [7] | Ki [7] | IC50 [8] | IC50 [9] | Ki [9] | IC50 [10] | IC50 [11] | IC50 [12] | IC50 [13] | IC50 [14] | Ki [14] | IC50 [15] | Ki [15]

C[C@]12CCC(=O)C=C1CC[C@@H]1[C@@H]2C(=O)C[C@@]2(C)[C@H]1CC[C@]2(O)C(=O)CO [CORTISONE]
Not Active: IC50 [1] | IC50 [2] | IC50 [3] | Ki [3] | IC50 [4] | IC50 [5] | IC50 [6] | Ki [6] | IC50 [7] | Ki [7] | IC50 [8] | IC50 [9] | Ki [9] | IC50 [10] | IC50 [11] | IC50 [12] | IC50 [13] | IC50 [14] | Ki [14] | IC50 [15] | Ki [15]

Cc1ccccc1N1CCN(CCc2nnc3n2CCCC3)CC1 [DAPIPRAZOLE]
Not Active: IC50 [1] | IC50 [2] | IC50 [3] | Ki [3] | IC50 [4] | IC50 [5] | IC50 [6] | Ki [6] | IC50 [7] | Ki [7] | IC50 [8] | IC50 [9] | Ki [9] | IC50 [10] | IC50 [11] | IC50 [12] | IC50 [13] | IC50 [14] | Ki [14] | IC50 [15] | Ki [15]

CC1=Nc2ccc(Cl)cc2S(=O)(=O)N1 [DIAZOXIDE]
Not Active: IC50 [1] | IC50 [2] | IC50 [3] | Ki [3] | IC50 [4] | IC50 [5] | IC50 [6] | Ki [6] | IC50 [7] | Ki [7] | IC50 [8] | IC50 [9] | Ki [9] | IC50 [10] | IC50 [11] | IC50 [12] | IC50 [13] | IC50 [14] | Ki [14] | IC50 [15] | Ki [15]

CC(=O)OCC(=O)[C@@]1(OC(C)=O)[C@@H](C)C[C@H]2[C@@H]3C[C@H](F)C4=CC(=O)C=C[C@]4(C)[C@@]3(F)[C@@H](O)C[C@@]21C [DIFLORASONE DIACETATE]
Not Active: IC50 [1] | IC50 [2] | IC50 [3] | Ki [3] | IC50 [4] | IC50 [5] | IC50 [6] | Ki [6] | IC50 [7] | Ki [7] | IC50 [8] | IC50 [9] | Ki [9] | IC50 [10] | IC50 [11] | IC50 [12] | IC50 [13] | IC50 [14] | Ki [14] | IC50 [15] | Ki [15]
